The text below walks through data of patent publication US8642622B2, “Piperidinyl compound as a modulator of chemokine receptor activity” (Bristol-Myers Squibb Company, priority 2010, dated 2014).

The structures appear in SMILES notation.

The nature of data set [1]: Single-dose pharmacokinetics in dogs. Particulars: dog. It is filed as in vivo. Here is the method: Serial blood samples were collected for all studies at various time points post dose (0.17 (or 0.25 for oral), 0.5, 0.75, 1, 2, 4, 6, 8 and 24 h, for example). Plasma samples were analyzed by LC-MS/MS.
Data set [2] has as its target T1, hERG potassium channel (Homo sapiens, UniProt Q12809).
T1 construct: expressed in transfected cells
Briefly: hERG patch clamp assay. The following applies: HEK-293 cells stably expressing hERG, pH 7.4, HEK-293, protein-free buffer, read-out: hERG channel, % inh. It counts as cell-based. The method, then: Whole-cell patch-clamp was used to directly measure hERG tail currents in HEK-293 cells stably expressing the cloned hERG potassium channel α subunit. Effects of compounds were calculated by measuring inhibition of peak tail current. Experiments were carried out using an aqueous buffer with pH 7.4 at room temperature. There was no protein in the assay buffer. The test concentrations reported are nominal free drug levels. Data is reported as percent inhibition at a fixed concentration.
Background: Block of hERG is tested as a sign of cardiac risk.

The nature of data set [3]: Protein binding, human. It is filed as in vitro ADME.
The nature of data set [4]: Single-dose pharmacokinetics in rats. It is filed as in vivo. The following applies: male, Sprague-Dawley, rat, plasma; for bioavailability: po. Here is the method:
Serial blood samples were collected for all studies from the jugular vein at various time points post dose (0.17 (or 0.25 for oral), 0.5, 0.75, 1, 2, 4, 6, 8 and 24 h, for example). Plasma samples were analyzed by LC-MS/MS.
Additional studies evaluating suspensions of crystalline drug substance in aqueous medium were performed as described above.

Data set [5] has as its target T2, CCR1 (Homo sapiens, UniProt P32246).
T2 construct: THP-1 monocytic leukemia cells are combined with 100 μg of LS WGA PS beads; endogenous in cells; host or cells: THP-1 monocytic leukemia cells
T2 sequence (P32246 1-355): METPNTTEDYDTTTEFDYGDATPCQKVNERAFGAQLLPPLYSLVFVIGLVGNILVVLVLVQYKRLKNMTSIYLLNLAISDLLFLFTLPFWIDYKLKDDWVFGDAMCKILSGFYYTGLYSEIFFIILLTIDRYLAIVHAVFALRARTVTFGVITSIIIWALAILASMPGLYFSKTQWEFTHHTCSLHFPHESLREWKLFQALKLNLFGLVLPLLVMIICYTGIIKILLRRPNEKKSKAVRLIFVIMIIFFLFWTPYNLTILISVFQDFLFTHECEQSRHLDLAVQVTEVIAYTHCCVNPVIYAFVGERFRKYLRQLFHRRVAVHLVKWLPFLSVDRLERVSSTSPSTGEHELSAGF
Briefly: Human CCR1 THP-1 binding assay ([125I]MIP-1α competition). The following applies: THP-1 cells. Here is the method: For radioligand competition studies, a final concentration of 1×10^5 THP-1 monocytic leukemia cells are combined with 100 μg of LS WGA PS beads (Amersham, Cat.#: RPNQ 0260) in 40 μL of assay buffer (RPMI 1640 without phenol red, 50 mM HEPES, 5 mM MgCl2, 1 mM CaCl2, 0.1% BSA). The THP-1 cell/bead mixture was added to each well of a 384-well assay plate (PerkinElmer, Cat. #:6007899) containing test compound in 3-fold serial dilution, with final concentrations ranging from 8 μM to 0.14 nM. A final concentration of 0.1 nM [^125I]MIP-1α (PerkinElmer, Cat. # NEX298) in 20 μL assay buffer was added to the reaction. Unlabeled MIP-1α was added in excess to some wells to determine non-specific binding. Sealed assay plates were incubated at room temperature for 12 h then analyzed by LEADseeker™.
The competition data of the test compound over a range of concentrations is plotted as percentage inhibition of radioligand specifically bound in the absence of test compound (percent of total signal). After correcting for non-specific binding, IC50 values are determined. […] The Ki values are determined by application of the Cheng-Prusoff equation to the IC50 values, where Ki=IC50/(1+ligand concentration/Kd). […]

Data set [6] in a line: Human liver microsomal metabolism, Assay Conditions A. It counts as in vitro ADME. Particulars: 0.5 μM compound, 10 minutes, 37° C. The method, then: Test compound is received as a 3.5 mM stock solution in 100 percent DMSO. Compound is diluted to create a 50 μM acetonitrile (ACN) solution containing 1.4% DMSO, which is then used as a 100× stock for incubation with microsomes. Each compound is tested in duplicate separately in each of three species in the Metabolic Stability-Human, Rat, and Mouse assay suite or as individual species in the Metabolic Stability-Dog or Metabolic Stability-Monkey suites. Compound, NADPH and liver microsome solutions are combined for incubation in three steps:
152 μL of liver microsome suspension, protein concentration of 1.1 mg/mL in 100 mM NaPi, pH 7.4, 6.6 mM MgCl2 buffer, is pre-warmed at 37° C.
• 1) 1.7 μL of 50 μM compound (98.6% ACN, 1.4% DMSO) is added to the same tube and pre-incubated at 37° C. for 5 minutes. • 2) The reaction is initiated by the addition of 17 μL of pre-warmed 10 mM NADPH solution in 100 mM NaPi, pH 7.4. • 3) Reaction components are mixed well, and 75 μL are immediately transferred into 150 μl quench/stop solution (zero-time point, To). Reactions are incubated at 37° C. for 10 minutes and then an additional 75 μL aliquot is transferred into 150 μL quench solution. Acetonitrile containing 100 μM DMN (a UV standard for injection quality control), is used as the quench solution to terminate metabolic reactions. • 4) Quenched mixtures are centrifuged at 1500 rpm (˜500×g) in an Allegra X-12 centrifuge, SX4750 rotor (Beckman Coulter Inc., Fullerton, Calif.) for fifteen minutes to pellet denatured microsomes. A volume of 90 μL of supernatant extract, containing the mixture of parent compound and its metabolites, is then transferred to a separate 96-well plate for UV-LC/MS-MS analysis to determine the percent of parent compound that is remaining in the mixture.
In general terms: Liver microsomes are vesicles of endoplasmic reticulum, rich in cytochrome P450 enzymes.

T1 sequence (Q12809 whole entry): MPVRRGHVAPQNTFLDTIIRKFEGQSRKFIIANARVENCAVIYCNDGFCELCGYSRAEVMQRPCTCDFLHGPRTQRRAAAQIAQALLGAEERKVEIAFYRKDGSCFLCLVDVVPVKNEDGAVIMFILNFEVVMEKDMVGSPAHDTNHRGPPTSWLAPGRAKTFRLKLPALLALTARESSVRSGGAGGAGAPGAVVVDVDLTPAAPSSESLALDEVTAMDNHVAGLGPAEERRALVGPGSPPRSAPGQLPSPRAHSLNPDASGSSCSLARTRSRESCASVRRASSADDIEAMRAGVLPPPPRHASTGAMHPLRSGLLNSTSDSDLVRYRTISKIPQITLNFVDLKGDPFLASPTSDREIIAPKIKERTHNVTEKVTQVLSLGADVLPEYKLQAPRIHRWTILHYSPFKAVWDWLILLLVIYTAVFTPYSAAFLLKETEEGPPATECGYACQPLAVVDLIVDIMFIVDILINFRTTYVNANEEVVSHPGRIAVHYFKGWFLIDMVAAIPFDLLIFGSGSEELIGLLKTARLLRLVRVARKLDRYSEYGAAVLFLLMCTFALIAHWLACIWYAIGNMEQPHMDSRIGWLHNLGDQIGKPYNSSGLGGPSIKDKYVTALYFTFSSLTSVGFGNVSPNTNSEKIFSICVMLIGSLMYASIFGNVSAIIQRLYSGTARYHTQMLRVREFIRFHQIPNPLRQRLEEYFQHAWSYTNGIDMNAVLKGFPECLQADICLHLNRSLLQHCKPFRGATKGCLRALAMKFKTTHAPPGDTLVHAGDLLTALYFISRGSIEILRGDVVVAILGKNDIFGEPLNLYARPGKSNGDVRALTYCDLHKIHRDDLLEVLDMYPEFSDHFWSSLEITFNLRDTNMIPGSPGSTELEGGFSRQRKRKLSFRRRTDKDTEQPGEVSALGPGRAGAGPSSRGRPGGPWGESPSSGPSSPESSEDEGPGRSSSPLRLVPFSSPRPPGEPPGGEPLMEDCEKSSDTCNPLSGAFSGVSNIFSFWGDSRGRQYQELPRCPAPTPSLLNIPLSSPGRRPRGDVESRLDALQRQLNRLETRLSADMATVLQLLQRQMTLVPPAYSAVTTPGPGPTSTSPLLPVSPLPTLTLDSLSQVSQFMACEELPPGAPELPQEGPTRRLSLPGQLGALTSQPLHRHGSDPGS

A word on the clearance: it is the volume of plasma or blood freed of the substance per unit of time. By bioavailability is commonly meant dose-corrected exposure relative to a reference, in per cent. The term fraction unbound denotes the share of the substance not bound to proteins or other matrix. A low value points to little free substance. As a reminder, the Ki is a measure of affinity in units of concentration, obtained from inhibition or displacement. Low readings indicate higher affinity, high ones lower affinity. Consider `CC(C)[C@@H](NC(=O)[C@@H]1CCC(F)(F)C1)C(=O)N1CC[C@](O)(c2ccc(Cl)cc2)[C@@](C)(O)C1` [Compound I, (R)—N—((R)-1-((3S,4S)-4-(4-chlorophenyl)-3,4-dihydroxy-3-methylpiperidin-1-yl)-3-methyl-1-oxobutan-2-yl)-3,3-difluorocyclopentanecarboxamide], for which the “decrease of in vivo clearance (CL) relative to the compared compounds” value in data set [1] is recorded as 8-13 fold. Also, the clearance in data set [1] (male, beagle, plasma, intravenous) was 0.6 mL/min/kg; in data set [4] (intravenous) it was 26 mL/min/kg. Also, the bioavailability in data set [1] (male, beagle, plasma, oral solution, read-out: dog oral bioavailability when dosed as solution) stood at 82%; in data set [4] (crystalline suspension in aqueous medium, read-out: Relative bioavailability when dosed as a crystalline suspension) it was 84%; in data set [4] (oral solution, read-out: Rat oral bioavailability when dosed as solution), 43%. The inhibition at 30 µM in data set [2] amounted to 22%. The same compound had a fraction unbound in data set [3] of 0.32. In data set [5], this compound came in with an inhibition constant (Ki) of 1.6 nM.

Turning to `CC(C)COC(=O)N[C@@H](C(=O)N1CC[C@](O)(c2ccc(Cl)cc2)C(C)(C)C1)C(C)C` [Example 1083], the “Human Liver Microsomal Metabolism % remaining (Assay Conditions A)” value in data set [6] was 13% (A). This compound came in with a Ki in data set [5] of 2.6 nM.
